Experimental findings from US11724992B2 (Novartis AG, priority 2017, dated 2023) are described below.

The structures appear in SMILES notation.

The first assay relates to IL-1β production in PMA-differentiated THP-1 cells. In words: IL-1β production in PMA-differentiated THP-1 cells stimulated with gramicidin (hTHP-1 assay, 2% fetal bovine serum; Procedures 1-3). Type of assay: cell-based, human. Particulars: Homo sapiens, THP-1, hTHP-1 assay containing 2% fetal bovine serum; bound; read-out: hTHP-1 IC50 (Average IC50 of compounds in hTHP-1 assay). The procedure, abridged: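 Readout is HTRF of IL-1β in cell-free supernatant after 2 h gramicidin (5 μM) challenge. Cells: THP-1 differentiated with PMA 20 ng/ml for 16-18 h, plated 50,000/well in 2% FBS RPMI, exposed to compound 1 h beforehand at final 100–0.0017 μM, DMSO 0.37%.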
As to `CNS(=O)(=NC(=O)N(C)c1c2c(cc3c1CCC3)CCC2)c1cnc(C(C)(C)O)s1` (centres unmarked) [Compound 249], the half-inhibitory concentration (IC50) – broadly, the point on the concentration scale where inhibition reaches its midpoint – is above 30000 nM.

Still in this assay, the particulars now being: Homo sapiens, THP-1, hTHP-1 assay containing 2% fetal bovine serum; class symbols; read-out: hTHP-1 IC50 (Average IC50 of compounds in hTHP-1 assay).
Regarding `CC(C)(O)c1ccc(S(N)(=O)=NC(=O)Nc2c3c(cc4c2CCC4)CCC3)c(F)c1` (centres unmarked) [Example 13, 2-fluoro-N′-(1,2,3,5,6,7-hexahydro-s-indacen-4-ylcarbamoyl)-4-(2-hydroxypropan-2-yl)benzenesulfonimidamide], the IC50 fell in the range of 40 to 200 nM.
Same read-out and setting: then `CC(C)(O)c1csc(S(N)(=O)=NC(=O)Nc2c3c(c(Cl)c4c2CCC4)CCC3)c1` (centres unmarked) [Example 14, N′-(8-chloro-1,2,3,5,6,7-hexahydro-s-indacen-4-ylcarbamoyl)-4-(2-hydroxypropan-2-yl)thiophene-2-sulfonimidamide], with 8 to 40 nM; and `CC(C)c1cc(C#N)c(F)c(C(C)C)c1NC(=O)N=S(N)(=O)c1cnc(C(C)(C)O)s1` (centres unmarked) [Example 15, N′-(4-cyano-3-fluoro-2,6-diisopropylphenylcarbamoyl)-2-(2-hydroxypropan-2-yl)thiazole-5-sulfonimidamide], with 40 to 200 nM.
Same read-out and setting: then `CC(C)c1cc(F)cc(C(C)C)c1NC(=O)N=S(N)(=O)c1cnc(C(C)(C)O)s1` (centres unmarked) [Example 21, N′-(4-fluoro-2,6-diisopropylphenylcarbamoyl)-2-(2-hydroxypropan-2-yl)thiazole-5-sulfonimidamide], with 40 to 200 nM.

The assay is the same for the next values; noted with them: hTHP-1 assay containing 2% fetal bovine serum; class symbols; read-out: hTHP-1 IC50 (Average IC50 of compounds in hTHP-1 assay).
`CN(C)Cc1cc(F)c(S(N)(=O)=NC(=O)Nc2c3c(cc4c2CCC4)CCC3)s1` (single isomer, unassigned) [Example 381, (R) or (S)-5-((dimethylamino)methyl)-3-fluoro-N′-((1,2,3,5,6,7-hexahydro-s-indacen-4-yl)carbamoyl)thiophene-2-sulfonimidamide]: the IC50 fell in the range of 8 to 40 nM.
In the case of `CN(C)Cc1cc(F)c(S(N)(=O)=NC(=O)Nc2c3c(cc4c2CCC4)CCC3)s1` (single isomer, unassigned) [Example 382, (S) or (R)-5-((dimethylamino)methyl)-3-fluoro-N′-((1,2,3,5,6,7-hexahydro-s-indacen-4-yl)carbamoyl)thiophene-2-sulfonimidamide], the IC50 was 1000 to 5000 nM.
Same read-out and setting: for `CC(C)(O)c1cc(F)c(S(N)(=O)=NC(=O)Nc2c3c(cc4c2CCC4)CCC3)s1` (single isomer, unassigned) [Example 385, (R) or (S)-3-fluoro-N′-((1,2,3,5,6,7-hexahydro-s-indacen-4-yl)carbamoyl)-5-(2-hydroxypropan-2-yl)thiophene-2-sulfonimidamide] the value was 8 to 40 nM; for `CC(C)(O)c1cc(F)c(S(N)(=O)=NC(=O)Nc2c3c(cc4c2CCC4)CCC3)s1` (single isomer, unassigned) [Example 386, (S) or (R)-3-fluoro-N′-((1,2,3,5,6,7-hexahydro-s-indacen-4-yl)carbamoyl)-5-(2-hydroxypropan-2-yl)thiophene-2-sulfonimidamide], 200 to 1000 nM; for `COC(C)(C)c1ncc(S(N)(=O)=NC(=O)Nc2c3c(cc4c2CCC4)CCC3)s1` (single isomer, unassigned) [Example 387, (S) or (R)-N′-((1,2,3,5,6,7-hexahydro-s-indacen-4-yl)carbamoyl)-2-(2-methoxypropan-2-yl)thiazole-5-sulfonimidamide], 1000 to 5000 nM.
For the molecule `COC(C)(C)c1ncc(S(N)(=O)=NC(=O)Nc2c3c(cc4c2CCC4)CCC3)s1` (single isomer, unassigned) [Example 388, (R) or (S)-N′-((1,2,3,5,6,7-hexahydro-s-indacen-4-yl)carbamoyl)-2-(2-methoxypropan-2-yl)thiazole-5-sulfonimidamide], the IC50 lay within 40 to 200 nM.
Take `COC(C)(C)c1ccc(S(N)(=O)=NC(=O)Nc2c3c(cc4c2CCC4)CCC3)cc1` (single isomer, unassigned) [Example 399, (R) or (S)-N′-((1,2,3,5,6,7-hexahydro-s-indacen-4-yl)carbamoyl)-4-(2-methoxypropan-2-yl)benzenesulfonimidamide]: the IC50 was 200 to 1000 nM.
Same read-out and setting: then `COC(C)(C)c1ccc(S(N)(=O)=NC(=O)Nc2c3c(cc4c2CCC4)CCC3)cc1` (single isomer, unassigned) [Example 400, (S) or (R)-N′-((1,2,3,5,6,7-hexahydro-s-indacen-4-yl)carbamoyl)-4-(2-methoxypropan-2-yl)benzenesulfonimidamide], with 5000 to 30000 nM; and `CNCc1ccc(S(N)(=O)=NC(=O)Nc2c3c(cc4c2CCC4)CCC3)c(F)c1` (single isomer, unassigned) [Example 403, (R) or (S)-2-fluoro-N′-((1,2,3,5,6,7-hexahydro-s-indacen-4-yl)carbamoyl)-4-((methylamino)methyl)benzenesulfonimidamide], with 200 to 1000 nM.
Regarding `CNCc1ccc(S(N)(=O)=NC(=O)Nc2c3c(cc4c2CCC4)CCC3)c(F)c1` (single isomer, unassigned) [Example 404, (S) or (R)-2-fluoro-N′-((1,2,3,5,6,7-hexahydro-s-indacen-4-yl)carbamoyl)-4-((methylamino)methyl)benzenesulfonimidamide], the IC50 was 5000 to 30000 nM.
Still for that read-out and setting: for `CN1CCCC1c1ccc(S(=N)(=O)NC(=O)Nc2c3c(cc4c2CCC4)CCC3)cc1` (single isomer, unassigned) [Example 407, (R,R) or (R,S) or (S,S) or (S,R)-N-((1,2,3,5,6,7-hexahydro-s-indacen-4-yl)carbamoyl)-4-(1-methylpyrrolidin-2-yl)benzenesulfonimidamide] the value was 5000 to 30000 nM.
Same read-out and setting: for `CN1CCCC1c1ccc(S(=N)(=O)NC(=O)Nc2c3c(cc4c2CCC4)CCC3)cc1` (single isomer, unassigned) [Example 408, (S,R) or (S,S) or (R,S) or (R,R)-N-((1,2,3,5,6,7-hexahydro-s-indacen-4-yl)carbamoyl)-4-(1-methylpyrrolidin-2-yl)benzenesulfonimidamide] the value was 1000 to 5000 nM.
As to `CN1CCCC1c1ccc(S(=N)(=O)NC(=O)Nc2c3c(cc4c2CCC4)CCC3)cc1` (single isomer, unassigned) [Example 409, (R,S) or (S,R) or (S,R) or (R,R)-N-((1,2,3,5,6,7-hexahydro-s-indacen-4-yl)carbamoyl)-4-(1-methylpyrrolidin-2-yl)benzenesulfonimidamide], the half-maximal inhibitory concentration (IC50) lay within 200 to 1000 nM.
Still for that read-out and setting: then `CN1CCCC1c1ccc(S(=N)(=O)NC(=O)Nc2c3c(cc4c2CCC4)CCC3)cc1` (single isomer, unassigned) [Example 410, (R,S) or (S,R) or (R,S or (S,S)-N-((1,2,3,5,6,7-hexahydro-s-indacen-4-yl)carbamoyl)-4-(1-methylpyrrolidin-2-yl)benzenesulfonimidamide], with 40 to 200 nM.
Still for that read-out and setting: then `CN(C)Cc1ccc(S(N)(=O)=NC(=O)Nc2c3c(cc4c2CCC4)CCC3)nc1` (single isomer, unassigned) [Example 413, (R) or (S)-5-((dimethylamino)methyl)-N′-((1,2,3,5,6,7-hexahydro-s-indacen-4-yl)carbamoyl)pyridine-2-sulfonimidamide], with 200 to 1000 nM.
For the molecule `CN(C)Cc1ccc(S(N)(=O)=NC(=O)Nc2c3c(cc4c2CCC4)CCC3)nc1` (single isomer, unassigned) [Example 414, (S) or (R)-5-((dimethylamino)methyl)-N′-((1,2,3,5,6,7-hexahydro-s-indacen-4-yl)carbamoyl)pyridine-2-sulfonimidamide], the IC50 fell in the range of 5000 to 30000 nM.
`CC(=O)c1ncc(S(N)(=O)=NC(=O)Nc2c3c(cc4c2CCC4)CCC3)s1` (single isomer, unassigned) [Example 417, (R) or (S)-2-acetyl-N′-((1,2,3,5,6,7-hexahydro-s-indacen-4-yl)carbamoyl)thiazole-5-sulfonimidamide]: the concentration for half-maximal inhibition (IC50) fell in the range of 1000 to 5000 nM.
The same measure, in the same setting: for `CC(=O)c1ncc(S(N)(=O)=NC(=O)Nc2c3c(cc4c2CCC4)CCC3)s1` (single isomer, unassigned) [Example 418, (S) or (R)-2-acetyl-N′-((1,2,3,5,6,7-hexahydro-s-indacen-4-yl)carbamoyl)thiazole-5-sulfonimidamide] the value was 40 to 200 nM.
Same read-out and setting: then `CC(C)(O)c1ncc(S(N)(=O)=NC(=O)Nc2cc3c(c4c2CCC4)CCC3)s1` (single isomer, unassigned) [Example 419, (R) or (S)-N′-((1,2,3,6,7,8-hexahydro-as-indacen-4-yl)carbamoyl)-2-(2-hydroxypropan-2-yl)thiazole-5-sulfonimidamide], with 40 to 200 nM; and `CC(C)(O)c1ncc(S(N)(=O)=NC(=O)Nc2cc3c(c4c2CCC4)CCC3)s1` (single isomer, unassigned) [Example 420, (S) or (R)-N′-((1,2,3,6,7,8-hexahydro-as-indacen-4-yl)carbamoyl)-2-(2-hydroxypropan-2-yl)thiazole-5-sulfonimidamide], with 1000 to 5000 nM.
On the same count and under the same terms, then `[2H]C1([2H])CCc2cc3c(c(NC(=O)N=S(N)(=O)c4cnc(C(C)(C)O)s4)c21)C([2H])([2H])CC3` (single isomer, unassigned) [Example 421, (R) or (S)-N′-((1,2,3,5,6,7-hexahydro-s-indacen-4-yl-3,3,5,5-d4)carbamoyl)-2-(2-hydroxypropan-2-yl)thiazole-5-sulfonimidamide], with 8 to 40 nM; and `[2H]C1([2H])CCc2c1cc1c(c2NC(=O)N=S(N)(=O)c2cnc(C(C)(C)O)s2)CCC1([2H])[2H]` (single isomer, unassigned) [Example 423, (R) or (S)-N′-((1,2,3,5,6,7-hexahydro-s-indacen-4-yl-1,1,7,7-d4)carbamoyl)-2-(2-hydroxypropan-2-yl)thiazole-5-sulfonimidamide], with 8 to 40 nM; and `CC(C)(O)c1ncc([S@@](N)(=O)=NC(=O)Nc2c3c(cc4c2CCC4)CCC3)s1` [Example 5], with 200 to 1000 nM.
Regarding `CC(C)(O)c1ncc([S@](N)(=O)=NC(=O)Nc2c3c(cc4c2CCC4)CCC3)s1` [Example 6], the half-inhibitory concentration (IC50) is 8 to 40 nM.
